Columns and labels:
[1] = resistance of thioester compounds to alkaline hydrolysis; format: physicochemical
Description: Therefore the observed inhibitory effects cannot be accounted for by postulating spontaneous hydrolysis of the thioester bond to regenerate the free sulfhydryl group.

[2] = system: pressor effects of angiotensin I; assay: oral effectiveness: blood pressure response to angiotensin I in anesthetized rats; format: in vivo, rat
Procedure, shortened: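 Fasted rats under pentobarbital anesthesia (50-60 mg/kg i.p.), ventilated, with carotid arterial pressure recorded; i.v. angiotensin I (80 ng, 160 ng or 400 ng/kg) or angiotensin II (80 ng) challenges repeated at timed intervals after oral gavage of compound (2-20 mg/kg, 10 mg, 17 or 23 μmol/kg) in aqueous NaHCO3.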

## C[C@H](CSC(=O)C(Cc1ccccc1)NC(=O)c1ccccc1)C(=O)N1CCC[C@H]1C(=O)O (stereo partly drawn) [Compound (I), 2-benzoylphenylalanylthio-2-D-methylpropanoyl-L-proline]
[1]
  resistance to alkaline hydrolysis: surprisingly resistant to alkaline hydrolysis
[1]; pH 9.5, 1M NaHCO3
  hydrolysis at pH 9.5 in 1M NaHCO3: not hydrolyzed
[2]; oral 2 mg/kg, 6 min, Rat 3
  Blood Pressure Response to 80 ng of Angiotensin I: 111 % of control
[2]; oral 2 mg/kg, 12 min, Rat 3
  Blood Pressure Response to 80 ng of Angiotensin I: 93 % of control
[2]; oral 2 mg/kg, 18 min, Rat 3
  Blood Pressure Response to 80 ng of Angiotensin I: 81 % of control
[2]; oral 2 mg/kg, 24 min, Rat 3
  Blood Pressure Response to 80 ng of Angiotensin I: 85 % of control
[2]; oral 2 mg/kg, 35 min, Rat 3
  Blood Pressure Response to 80 ng of Angiotensin I: 56 % of control
[2]; oral 2 mg/kg, 58 min, Rat 3
  Blood Pressure Response to 80 ng of Angiotensin I: 56 % of control
[2]; oral 2 mg/kg, 68 min, Rat 3
  Blood Pressure Response to 80 ng of Angiotensin I: 52 % of control
[2]; oral 2 mg/kg, 88 min, Rat 3
  Blood Pressure Response to 80 ng of Angiotensin I: 30 % of control
[2]; oral 2 mg/kg, 118 min, Rat 3
  Blood Pressure Response to 80 ng of Angiotensin I: 37 % of control
[2]; oral 2 mg/kg, 138 min, Rat 3
  Blood Pressure Response to 80 ng of Angiotensin I: 60 % of control
[2]; oral 2 mg/kg, 169 min, Rat 3
  Blood Pressure Response to 80 ng of Angiotensin I: 37 % of control
[2]; oral 2 mg/kg, 185 min, Rat 3
  Blood Pressure Response to 80 ng of Angiotensin I: 37 % of control
[2]; oral 2 mg/kg, 205 min, Rat 3
  Blood Pressure Response to 80 ng of Angiotensin I: 44 % of control
[2]; oral 5 mg/kg, 6 min, Rat 2
  Blood Pressure Response to 80 ng of Angiotensin I: 67 % of control
[2]; oral 5 mg/kg, 12 min, Rat 1
  Blood Pressure Response to 80 ng of Angiotensin I: 41 % of control
[2]; oral 5 mg/kg, 12 min, Rat 2
  Blood Pressure Response to 80 ng of Angiotensin I: 57 % of control
[2]; oral 5 mg/kg, 18 min, Rat 1
  Blood Pressure Response to 80 ng of Angiotensin I: 36 % of control
[2]; oral 5 mg/kg, 24 min, Rat 2
  Blood Pressure Response to 80 ng of Angiotensin I: 43 % of control
[2]; oral 5 mg/kg, 35 min, Rat 1
  Blood Pressure Response to 80 ng of Angiotensin I: 23 % of control
[2]; oral 5 mg/kg, 35 min, Rat 2
  Blood Pressure Response to 80 ng of Angiotensin I: 37 % of control
[2]; oral 5 mg/kg, 48 min, Rat 1
  Blood Pressure Response to 80 ng of Angiotensin I: 18 % of control
[2]; oral 5 mg/kg, 48 min, Rat 2
  Blood Pressure Response to 80 ng of Angiotensin I: 17 % of control
[2]; oral 5 mg/kg, 58 min, Rat 1
  Blood Pressure Response to 80 ng of Angiotensin I: 23 % of control
[2]; oral 5 mg/kg, 58 min, Rat 2
  Blood Pressure Response to 80 ng of Angiotensin I: 17 % of control
[2]; oral 5 mg/kg, 68 min, Rat 2
  Blood Pressure Response to 80 ng of Angiotensin I: 20 % of control
[2]; oral 5 mg/kg, 78 min, Rat 2
  Blood Pressure Response to 80 ng of Angiotensin I: 17 % of control
[2]; oral 5 mg/kg, 88 min, Rat 2
  Blood Pressure Response to 80 ng of Angiotensin I: 13 % of control
[2]; oral 5 mg/kg, 118 min, Rat 1
  Blood Pressure Response to 80 ng of Angiotensin I: 23 % of control
[2]; oral 5 mg/kg, 185 min, Rat 2
  Blood Pressure Response to 80 ng of Angiotensin I: 27 % of control
[2]; oral 5 mg/kg, 205 min, Rat 2
  Blood Pressure Response to 80 ng of Angiotensin I: 33 % of control
[2]; oral 5 mg/kg, 213 min, Rat 2
  Blood Pressure Response to 80 ng of Angiotensin I: 33 % of control
[2]; oral 5 mg/kg, 226 min, Rat 2
  Blood Pressure Response to 80 ng of Angiotensin I: 43 % of control
[2]; oral, 2 or 5 mg/kg
  duration of drug action: > 226 min
